Experimental data: patent publication US4738929A, “Purified culture of streptomyces galanosa” (Warner-Lambert Company, priority 1986, dated 1988)
≈ marks a conversion by molar mass, not a printed value. Structures can show the parent of a compound that is named as a salt.

What was measured:
[1] = test system: Escherichia coli (PD-04863); assay: Microtiter dilution MIC, Escherichia coli (PD-04863); format: cell-based; conditions: Mueller-Hinton broth, 37° C., 16-24 hours, read-out: Minimal Inhibitory Concentration
Procedure: (§1) The compounds of the present invention and their pharmaceutically acceptable salts are useful as antimicrobial agents. The antimicrobial activity of the representative examples of compounds in accordance with the present invention against five species of gram-negative bacteria, seven species of gram-positive bacteria, four species of yeast, and two species of fungi were determined using the microtiter dilution technique. This method is described by T. B. Conrath, "Handbook of Microtiter Procedures," Dynatech Corp., Cambridge, Mass., USA (1972); and T. L. Gavan et al, "Microdilution Test Procedures," in Manual of Clinical Microbiology, E. H. Lennette, Ed., American Soc. for Microbiol., Washington, D.C., U.S.A. (1980).
(§2) Each agent is suspended in a nonaqueous solvent for several minutes to sterilize the compound or, if the compound is completely soluble in water, the aqueous solution is sterilized by passage through a 0.2-0.45 micrometer membrane filter.
(§3) Each well of a sterile 96-well microdilution tray is filled under aseptic conditions with 0.1 ml of Mueller-Hinton broth (for antibacterial tests), or yeast extract-peptone-dextrose or buffered supplemented yeast nitrogen base (for tests with yeasts or fungi).
(§4) […] of the test compound solution is added to each of the eight wells in the first row of the tray. A microdilutor apparatus is used to simultaneously mix the contents of these wells and to transfer aliquots to each succeeding row of cells to obtain a range of serially diluted solutions. The last row of wells is untreated and serves as a control.
(§5) Each well containing broth and test compound is inoculated with about ten microliters of inoculum of the test microorganism. One well in the last row of wells (which is free of test compound) is not inoculated and is used as a sterility control The trays are sealed and incubated at 37° C. for 16-24 hours (for bacteria) or at 28° C. for 36-48 hours (yeasts or fungi). During incubation, the inoculated medium is shaken at 100-140 rpm to increase contact between the microorganism cells and test compounds.
(§6) After the incubation period, each plate is evaluated by determining the lowest concentration of test compound required to inhibit the growth of the microorganism and recorded as a minimal inhibitory concentration (MIC).

Salmonella typhimurium = assay: Microtiter dilution MIC, Salmonella typhimurium; format: cell-based; conditions: Salmonella enterica, Mueller-Hinton broth, 37° C., 16-24 hours, read-out: Minimal Inhibitory Concentration
Procedure: as §1, §2, §3, §4, §5, §6

Alcaligenes viscolactis = assay: Microtiter dilution MIC, Alcaligenes viscolactis; format: cell-based; conditions: Mueller-Hinton broth, 37° C., 16-24 hours, read-out: Minimal Inhibitory Concentration
Procedure: as §1, §2, §3, §4, §5, §6

Branhamella catarrhalis = assay: Microtiter dilution MIC, Branhamella catarrhalis; format: cell-based; conditions: Moraxella catarrhalis; Mueller-Hinton broth, 37° C., 16-24 hours; read-out: Minimal Inhibitory Concentration
Procedure: as §1, §2, §3, §4, §5, §6

Pseudomonas aeruginosa = assay: Microtiter dilution MIC, Pseudomonas aeruginosa; format: cell-based; conditions: Mueller-Hinton broth, 37° C., 16-24 hours, read-out: Minimal Inhibitory Concentration
Procedure: as §1, §2, §3, §4, §5, §6

Micrococcus luteus = assay: Microtiter dilution MIC, Micrococcus luteus; format: cell-based; conditions: Mueller-Hinton broth, 37° C., 16-24 hours, read-out: Minimal Inhibitory Concentration
Procedure: as §1, §2, §3, §4, §5, §6

Staphylococcus aureus = assay: Microtiter dilution MIC, Staphylococcus aureus; format: cell-based; conditions: Mueller-Hinton broth, 37° C., 16-24 hours, read-out: Minimal Inhibitory Concentration
Procedure: as §1, §2, §3, §4, §5, §6

Streptococcus pyogenes = assay: Microtiter dilution MIC, Streptococcus pyogenes; format: cell-based; conditions: Mueller-Hinton broth, 37° C., 16-24 hours, read-out: Minimal Inhibitory Concentration
Procedure: as §1, §2, §3, §4, §5, §6

Streptococcus pneumoniae = assay: Microtiter dilution MIC, Streptococcus pneumoniae; format: cell-based; conditions: Mueller-Hinton broth, 37° C., 16-24 hours, read-out: Minimal Inhibitory Concentration
Procedure: as §1, §2, §3, §4, §5, §6

Streptococcus faecalis = assay: Microtiter dilution MIC, Streptococcus faecalis; format: cell-based; conditions: Enterococcus faecalis; Mueller-Hinton broth, 37° C., 16-24 hours; read-out: Minimal Inhibitory Concentration
Procedure: as §1, §2, §3, §4, §5, §6

Bacillus cereus = assay: Microtiter dilution MIC, Bacillus cereus; format: cell-based; conditions: Mueller-Hinton broth, 37° C., 16-24 hours, read-out: Minimal Inhibitory Concentration
Procedure: as §1, §2, §3, §4, §5, §6

Bacillus megaterium = assay: Microtiter dilution MIC, Bacillus megaterium; format: cell-based; conditions: Priestia megaterium; Mueller-Hinton broth, 37° C., 16-24 hours; read-out: Minimal Inhibitory Concentration
Procedure: as §1, §2, §3, §4, §5, §6

Saccharomyces cerevisiae = assay: Microtiter dilution MIC, Saccharomyces cerevisiae; format: cell-based; conditions: yeasts or fungi, 28° C., 36-48 hours, read-out: Minimal Inhibitory Concentration
Procedure: as §1, §2, §3, §4, §5, §6

[2] = test system: Schizosaccharomyces pombe; assay: Microtiter dilution MIC, Schizosaccharomyces pombe; format: cell-based; conditions: yeasts or fungi, 28° C., 36-48 hours, read-out: Minimal Inhibitory Concentration
Procedure: as §1, §2, §3, §4, §5, §6

Rhodotorula aurantiaca = assay: Microtiter dilution MIC, Rhodotorula aurantiaca; format: cell-based; conditions: Buckleyzyma aurantiaca; yeasts or fungi, 28° C., 36-48 hours; read-out: Minimal Inhibitory Concentration
Procedure: as §1, §2, §3, §4, §5, §6

Torulopsis albida = assay: Microtiter dilution MIC, Torulopsis albida; format: cell-based; conditions: Naganishia albida; yeasts or fungi, 28° C., 36-48 hours; read-out: Minimal Inhibitory Concentration
Procedure: as §1, §2, §3, §4, §5, §6

Mucor paraciticus = assay: Microtiter dilution MIC, Mucor paraciticus; format: cell-based; conditions: yeasts or fungi, 28° C., 36-48 hours, read-out: Minimal Inhibitory Concentration
Procedure: as §1, §2, §3, §4, §5, §6

Rhizopus japonicus = assay: Microtiter dilution MIC, Rhizopus japonicus; format: cell-based; conditions: yeasts or fungi, 28° C., 36-48 hours, read-out: Minimal Inhibitory Concentration
Procedure: as §1, §2, §3, §4, §5, §6

[3] = test system: L1210 murine leukemia cell line; assay: Cytotoxic activity against L1210 murine leukemia in vitro; format: cell-based; conditions: Mus musculus, 50% inhibition of growth, duplicate tests
Procedure: The antineoplastic activities of representative compounds of the present invention against the L1210 murine leukemia cell line in vitro were determined using the methods detailed by R. I. Geran et al, "Protocols for Screening Chemical Agents and Natural Products Against Animal Tumors and Other Biological Systems," 3rd Edition, Cancer Chemotherapy Reports, Part 3, Vol. 3, pages 1-87 (1972) which is incorporated herein by reference.
The IC50 values are the concentration of compound required to produce 50% inhibition of growth of the cell line.

P388 leukemia cell line = assay: In vivo antineoplastic activity against transplanted P388 leukemia in mice; conditions: Days 1-9
Procedure: The in vivo antineoplastic activity of representative compounds of the present invention against the transplanted P388 leukemia cell line in mice was determined in accordance with the protocol given in Geran et al, cited above. The mice were infected intraperitoneally on Day 0 and then administered the indicated doses of the test compounds on Days 1-9.

With `CCN(CC)CCNC(=O)c1ccc(O)c2nc3c(C=O)c(O)c(C)c(O)c3nc12` [Example 16, N-[2-(diethylamino)ethyl]-6-formyl-4,7,9-trihydroxy-8-methyl-1-phenazinecarboxamide] the MIC [1] was 37 µg/mL (≈ 89.7 µM), the MIC (Salmonella typhimurium) was 37 µg/mL (≈ 89.7 µM) and the MIC (Alcaligenes viscolactis) was 12.3 µg/mL (≈ 29.8 µM). The MIC (Branhamella catarrhalis) was 12.3 µg/mL (≈ 29.8 µM), the MIC (Pseudomonas aeruginosa) was 333 µg/mL (≈ 807 µM) and the MIC (Micrococcus luteus) was 12.3 µg/mL (≈ 29.8 µM). It also gave an MIC (Staphylococcus aureus) of 37 µg/mL (≈ 89.7 µM), an MIC (Streptococcus pyogenes) of 37 µg/mL (≈ 89.7 µM) and an MIC (Streptococcus pneumoniae) of 37 µg/mL (≈ 89.7 µM). For the same molecule, the MIC (Streptococcus faecalis) was 111 µg/mL (≈ 269 µM), the MIC (Bacillus cereus) was 12.3 µg/mL (≈ 29.8 µM) and the MIC (Bacillus megaterium) was 37 µg/mL (≈ 89.7 µM). The MIC (Saccharomyces cerevisiae) was 111 µg/mL (≈ 269 µM), the MIC [2] was 37 µg/mL (≈ 89.7 µM) and the MIC (Rhodotorula aurantiaca) was 37 µg/mL (≈ 89.7 µM). The MIC (Torulopsis albida) was 37 µg/mL (≈ 89.7 µM), the MIC (Mucor paraciticus) was 111 µg/mL (≈ 269 µM) and the MIC (Rhizopus japonicus) was 111 µg/mL (≈ 269 µM). The IC50 [3] was 0.33 µg/mL (≈ 0.8 µM), the “% T/C” value (P388 leukemia cell line; 19 mg/kg/injection) was 136% and the “% T/C” value (P388 leukemia cell line; 37.5 mg/kg/injection) was 147%. For the same molecule, the “% T/C” value (P388 leukemia cell line; 75 mg/kg/injection) was 166% and the “% T/C” value (P388 leukemia cell line; 150 mg/kg/injection) was 213%.
For `COC(=O)c1ccc(O)c2nc3c(C=NCCN(C)C)c(O)c(C)c(O)c3nc12` [Example 5, 6-[[[2-(dimethylamino)ethyl]imino]methyl]-4,7,9-trihydroxy-8-methyl-1-phenazinecarboxylic acid, methyl ester], the MIC [1] was 12.3 µg/mL (≈ 30.9 µM), the MIC (Salmonella typhimurium) was 12.3 µg/mL (≈ 30.9 µM) and the MIC (Alcaligenes viscolactis) was 4.1 µg/mL (≈ 10.3 µM). The MIC (Branhamella catarrhalis) was 1.4 µg/mL (≈ 3.51 µM), the MIC (Pseudomonas aeruginosa) was 111 µg/mL (≈ 279 µM) and the MIC (Micrococcus luteus) was 4.1 µg/mL (≈ 10.3 µM). For the same molecule, the MIC (Staphylococcus aureus) was 12.3 µg/mL (≈ 30.9 µM), the MIC (Streptococcus pyogenes) was 4.1 µg/mL (≈ 10.3 µM) and the MIC (Streptococcus pneumoniae) was less than 0.46 µg/mL. It also gave an MIC (Streptococcus faecalis) of 12.3 µg/mL (≈ 30.9 µM), an MIC (Bacillus cereus) of 1.4 µg/mL (≈ 3.51 µM) and an MIC (Bacillus megaterium) of 4.1 µg/mL (≈ 10.3 µM). It also gave an MIC (Saccharomyces cerevisiae) of 111 µg/mL (≈ 279 µM), an MIC [2] of 37 µg/mL (≈ 92.9 µM) and an MIC (Rhodotorula aurantiaca) of 111 µg/mL (≈ 279 µM). The MIC (Torulopsis albida) was 333 µg/mL (≈ 836 µM), the MIC (Mucor paraciticus) was 37 µg/mL (≈ 92.9 µM) and the MIC (Rhizopus japonicus) was 111 µg/mL (≈ 279 µM). For the same molecule, the IC50 [3] was 0.17 µg/mL (≈ 0.427 µM), the “% T/C” value (P388 leukemia cell line; 37.5 mg/kg/injection) was 104% and the “% T/C” value (P388 leukemia cell line; 75 mg/kg/injection) was 113%. The “% T/C” value (P388 leukemia cell line; 150 mg/kg/injection) was 137%.
For `Cc1c(O)c(C=NCCN(C)C)c2nc3c(O)ccc(C(=O)NCCN(C)C)c3nc2c1O` [Example 7, N-[2-(dimethylamino)ethyl]-6-[[[2-(dimethylamino)ethyl]imino]methyl]-4,7,9-trihydroxy-8-methyl-1-phenazinecarboxamide], the MIC [1] was 111 µg/mL (≈ 244 µM), the MIC (Salmonella typhimurium) was 333 µg/mL (≈ 733 µM) and the MIC (Alcaligenes viscolactis) was 4.1 µg/mL (≈ 9.02 µM). For the same molecule, the MIC (Branhamella catarrhalis) was 12.3 µg/mL (≈ 27.1 µM), the MIC (Pseudomonas aeruginosa) was less than 1000 µg/mL and the MIC (Micrococcus luteus) was 37 µg/mL (≈ 81.4 µM). The MIC (Staphylococcus aureus) was 333 µg/mL (≈ 733 µM), the MIC (Streptococcus pyogenes) was 111 µg/mL (≈ 244 µM) and the MIC (Streptococcus pneumoniae) was 37 µg/mL (≈ 81.4 µM). For the same molecule, the MIC (Streptococcus faecalis) was 1000 µg/mL (≈ 2200 µM), the MIC (Bacillus cereus) was 111 µg/mL (≈ 244 µM) and the MIC (Bacillus megaterium) was 333 µg/mL (≈ 733 µM). For the same molecule, the MIC (Saccharomyces cerevisiae) was 1000 µg/mL (≈ 2200 µM), the MIC [2] was 111 µg/mL (≈ 244 µM) and the MIC (Rhodotorula aurantiaca) was 111 µg/mL (≈ 244 µM). The MIC (Torulopsis albida) was 1000 µg/mL (≈ 2200 µM), the MIC (Mucor paraciticus) was 333 µg/mL (≈ 733 µM) and the MIC (Rhizopus japonicus) was 333 µg/mL (≈ 733 µM). For the same molecule, the IC50 [3] was 0.63 µg/mL (≈ 1.39 µM), the “% T/C” value (P388 leukemia cell line; 25 mg/kg/injection) was 126% and the “% T/C” value (P388 leukemia cell line; 50 mg/kg/injection) was 140%. For the same molecule, the “% T/C” value (P388 leukemia cell line; 100 mg/kg/injection) was 152% and the “% T/C” value (P388 leukemia cell line; 200 mg/kg/injection) was 166%.
`Cc1c(O)c(C=O)c2nc3c(O)ccc(C(=O)NCCN(C)C)c3nc2c1O` [Example 9, N-[2-(dimethylamino)ethyl]-6-formyl-4,7,9-trihydroxy-8-methyl-1-phenazinecarboxamide, methanesulfonate salt] was tested, and the “% T/C” value (P388 leukemia cell line; 5 mg/kg/injection) was 139%, the “% T/C” value (P388 leukemia cell line; 10 mg/kg/injection) was 143% and the “% T/C” value (P388 leukemia cell line; 20 mg/kg/injection) was 144%. The “% T/C” value (P388 leukemia cell line; 40 mg/kg/injection) was 170% and the “% T/C” value (P388 leukemia cell line; 80 mg/kg/injection) was 219%.
